Data published in patent US6936632B2, “Fused pyrrole compounds, pharmaceutical agents containing the same, and the use thereof” (Merckle GmbH, priority 2000, dated 2005).

Row | melting point [°C] | Structure (SMILES)
1 | 206.9 | NS(=O)(=O)c1ccc(-c2cc3n(c2-c2ccc(F)cc2)CCC3)cc1
2 | 199.6 | Cc1c(C(F)(C(F)(F)F)C(F)(F)F)c(-c2ccc(S(N)(=O)=O)cc2)c2n1CCC2
3 | 191 | CS(=O)(=O)c1ccc(-c2c(-c3ccc(F)cc3)cn3c2CCC3)cc1
